Entries after “also recorded” stand apart in the source; their conditions may differ.

Holding throughout (assay type): binding, rabbit
Assay [1] concerns antiserum to homocystamide-LDL adduct. The assay is described as follows: competition ELISA with antiserum (1:700), solid phase homocystamide-LDL adduct. The note with it: competitor against solid phase homocystamide-LDL adduct. Background: In an ELISA, binding on a coated surface is turned into a signal by an enzyme label.
Experimental: Antiserum obtained as described in FIG. 1 was added to Millipore 96-well plates containing pre-adsorbed homocystamide-LDL adduct (100 μl, 10 μg/ml) at a limiting dilution (1:700) in the indicated concentrations of competitors (●, homocystamide-LDL adduct, ∘, native LDL, □, acetylated LDL, ▴, methylated LDL, ▪, methylated LDL treated with homocysteine thiolactone). Following a 12 hour incubation, antibody bound was quantified as described in FIG. 2. […] This experiment is representative of 3 independent experiments. (n=3 for each data point. Data points are the mean±SEM).
Antiserum obtained as described in FIG. 1 was added to Millipore 96-well plates containing pre-adsorbed homocystamide-LDL adduct (100 μl, 10 μg/ml) at a limiting dilution (1:700) in the indicated concentrations of competitors (●, Cu^2+-oxidized homocystamide-LDL adduct, ▪, Cu^2+-oxidized LDL, ▴, homocysteine). Following a 12 hour incubation, antibody bound was quantified as described in FIG. 1. […] This experiment is representative of 3 independent experiments. (n=3 for each data point. Data points are the mean±SEM).
Antiserum obtained as described in FIG. 1 was added to Millipore 96-well plates containing pre-adsorbed homocystamide-LDL adduct (100 μl, 10 μg/ml) at a limiting dilution (1:700) in the indicated concentrations of competitors (▴, ●, ▪, homocystamide-LDL, -HDL, and -lipoprotein-deficient serum proteins isolated from homocysteine thiolactone-treated plasma, and freshly drawn plasma without homocysteine thiolactone treatment, Δ). Following a 12 hour incubation, antibody bound following a 2-hour incubation, antibody bound was quantified as described in FIG. 1 using horseradish peroxidase-linked goat-anti-rabbit IgG (heavy and light chains). […] (n=4 for each data point. Data points are the mean±SEM). […] (This experiment is representative of 3 independent experiments. Data points are the mean of duplicate measurements.)
Briefly, 96-well plates were initially coated with homocystamide-LDL adduct (100 μl, 10 μg/ml). […] Immunoglobulin classes were determined using goat-anti-rabbit-μ-chain-specific, -heavy chain specific, and -heavy and light chain specific secondary antibodies that were linked to horseradish peroxidase. In order to determine antibody specificity, competition experiments were employed, using a limiting dilution (1:300) of purified antibody. Horseradish peroxidase-labeled goat-anti rabbit (heavy and light chain-specific) was used as a substrate, and the reaction was quenched by the addition of H2SO4 (100 μl, 1.8 M). The absorbance was measured at 450 nm in a 96-well plate reader.
Homocysteine thiolactone-treated LDL (10 μg/ml) was coated onto 96-well plates.
Assay [2] has as its system purified polyclonal antibody directed against the homocystamide adduct. The assay is described as follows: competition ELISA with purified polyclonal antibody (1:300), solid phase homocystamide-LDL adduct. To be noted: for IC50 values, D,L- versus L-homocystamide-BSA compared: competitor 0-500 μg/ml, P>0.05, data not shown. Here is the method: Solid phase ELISA techniques for antibody characterization. Solid phase indirect antibody capture techniques were used in all assays and have been described elsewhere (10, 34). Briefly, 96-well plates were initially coated with homocystamide-LDL adduct (100 μl, 10 μg/ml). For antibody titer determinations, the antisera were diluted at concentrations as indicated in the “Results” section. We defined antibody titers as the inverse of the greatest serum dilution in which a significant difference (p<0.05) between the percentage antibody bound from the antiserum and the pre-immune serum was observed. Immunoglobulin classes were determined using goat-anti-rabbit-μ-chain-specific, -heavy chain specific, and -heavy and light chain specific secondary antibodies that were linked to horseradish peroxidase. In order to determine antibody specificity, competition experiments were employed, using a limiting dilution (1:300) of purified antibody. Horseradish peroxidase-labeled goat-anti rabbit (heavy and light chain-specific) was used as a […], and the reaction was quenched by the addition of H2SO4 (100 μl, 1.8 M). The absorbance was measured at 450 nm in a 96-well plate reader.
Purification of antiserum. Polyclonal rabbit-anti-homocystamide antiserum was obtained following the 4th immunization of New Zealand White rabbits with homologous homocystamide-LDL adduct (0.5 mg in Freund's adjuvant) as described previously (34). A saturated solution of ammonium sulfate was added dropwise to the antiserum while stirring until the solution was 25% saturated with ammonium sulfate. This mixture was incubated overnight at 4° C. The mixture was centrifuged, and pellet was discarded. Ammonium sulfate was added to the supernatant while stirring until the final concentration of the solution was 50% ammonium sulfate. This mixture was incubated overnight at 4° C. The mixture was centrifuged, and the supernatant was discarded. The pellet was brought up in and dialyzed against Tris (10 mM, pH 7.5). […]

For assay [3], the system named is antiserum to homocystamide-LDL adduct. The assay is described as follows: solid phase ELISA serum dilution curve on homocystamide adducts of other proteins. The note with it: protein coated on solid phase. As for the experimental part:
Solid phase ELISA techniques for antibody characterization. Solid phase indirect antibody capture techniques were used in all assays and have been described elsewhere (10, 34). Briefly, 96-well plates were initially coated with homocystamide-LDL adduct (100 μl, 10 μg/ml). For antibody titer determinations, the antisera were diluted at concentrations as indicated in the “Results” section. We defined antibody titers as the inverse of the greatest serum dilution in which a significant difference (p<0.05) between the percentage antibody bound from the antiserum and the pre-immune serum was observed. Immunoglobulin classes were determined using goat-anti-rabbit-μ-chain-specific, -heavy chain specific, and -heavy and light chain specific secondary antibodies that were linked to horseradish peroxidase. In order to determine antibody specificity, competition experiments were employed, using a limiting dilution (1:300) of purified antibody. […] The absorbance was measured at 450 nm in a 96-well plate reader.
We sought to determine whether or not homocystamide adducts of other proteins could also be used in order to measure antibody titers. […] This curve resembled the serum dilution curve obtained in FIG. 4, as the antiserum recognized both homocystamide-BSA and homocystamide-hemoglogin adduct, indicated by antiserum dilution-dependent increase in the absorbance at 450 nm.

Assay [4] concerns the target purified polyclonal anti-homocystamide adduct antibody. The assay is described as follows: competition ELISA with purified polyclonal antibody (1:400), plates coated with homocystamide-BSA adduct. As for the experimental part: Microtiter plate preparation. BSA (10 mg/ml in 1M borate, pH 8.4) was incubated for 6 hours at 25° C. in the presence of homocysteine thiolactone (50 mM). Following incubation, excess homocysteine thiolactone was removed by passing the sample down a column pre-equilibrated with NaCO3 (100 mM, pH 9.6). Homocystamide-BSA adduct was diluted to 5 μg/ml in NaCO3 (100 mM, pH 9.6), and 200 μl/well was added to polystyrene microtiter plates (11). These plates were incubated overnight at 4° C., rinsed in PBS, and either used immediately or covered and stored in PBS for future use.
Preparation of a standard curve. In order to prepare a standard curve of known homocysteine concentrations, the indicated concentrations of homocysteine were incubated in the presence of HCl (6N) and heated at 60° C. for 2 hours. […] These solutions were used in a competitive antibody binding assays in parallel with “test solutions” that were analyzed for homocysteine concentrations.
Immunoassay. […] The reactions were quenched after 30 minutes by the addition of H2SO4 (1.8N) and read at 450 nm. […]
Determination of antibody specificity. Antibody specificity for homocystamide-BSA adduct was determined. […] Results of antibody binding are expressed as B/B0, in which B is the % antibody binding in the presence of competitor, and B0 is the % antibody binding in the absence of competitor. […]

Turning to `N[C@@H](CCS)C(=O)O` [homocysteine], the “competition for binding to the antiserum (dose-dependent decrease in %B/B0)” value is listed as “Neither homocysteine, homocystine (homocysteine disulfide), nor Cu^2+-oxidized LDL competed for binding” in assay [1] and “did not compete for binding” in assay [1] (listed as free homocysteine).

As to `N[C@@H](CCSSCC[C@H](N)C(=O)O)C(=O)O` [homocystine], the “competition / recognition by purified polyclonal antibody” value in assay [2] (purified polyclonal antibody 1:300, solid phase homocystamide-LDL) is on record as “much less affinity than protein-homocystamide adducts; also recorded: recognized, however with much lower affinity”. Moreover, the “competition for binding to the antiserum (dose-dependent decrease in %B/B0)” value in assay [1] is “neither BSA nor homocysteine disulfide (homocystine) were recognized; also recorded: Neither homocysteine, homocystine (homocysteine disulfide), nor Cu^2+-oxidized LDL competed for binding”.

On to “D,L-homocystamide-BSA: BSA incubated with D,L Homocysteine thiolactone”, for which the “IC50 values, D,L- versus L-homocystamide-BSA compared” value in assay [2] is “not significantly different”.

As to “L-homocystamide-BSA: BSA incubated with L-homocysteine thiolactone”, the “IC50 values, D,L- versus L-homocystamide-BSA compared” value in assay [2] was “not significantly different”.

As for “homocystamide-BSA adduct: BSA treated with homocysteine thiolactone; printed as BSA in the IC50 sentence of b114”, the “recognition by the antiserum (dilution-dependent increase in absorbance at 450 nm)” value in assay [3] is given as “recognized”. The “IC50, inhibition of antibody binding (B/B0)” value in assay [4] is given as “approximately 200 μg/ml”.
